Measurements taken from BindingDB's records for doi:10.1016/s0960-894x(01)00477-2 (Section De Chimie De L'Universit&#163, 2001).

Key:
[1] = Inhibitory activity towards Alpha-mannosidase from jack bean
[2] = Inhibitory activity towards Beta-Glucosidase from Almond
[3] = as above; remark: listed apart in the source
[4] = Inhibitory activity towards Alpha-mannosidase from Jack bean
[5] = as above; remark: listed apart in the source
[6] = Inhibitory activity towards Beta-Glucosidase from Almond; remark: listed apart in the source
[7] = Inhibitory activity towards Alpha-mannosidase from Almond
[8] = Inhibitory activity towards Beta-Glucosidase from Almond; remark: listed apart in the source
[9] = Inhibitory activity towards Alpha-mannosidase from Almond; remark: listed apart in the source
[10] = as above; remark: listed apart in the source

Structure (SMILES)	Ki [4]	IC50 [5]	IC50 [6]	other results
OCC(O)[C@H]1NC[C@H](O)[C@@H]1O (stereo partly drawn)	–	–	–	IC50 [1]: 800 µM; IC50 [2]: 120 µM; Ki [3]: 53 µM
OC(O)CC1NCC(O)C1O (stereo not drawn) [2-(2,2-Dihydroxy-ethyl)-pyrrolidine-3,4-diol]	80 µM	180 µM	–	–
NCC1NCC(O)C1O (stereo not drawn) [2-Aminomethyl-pyrrolidine-3,4-diol]	53 µM	170 µM	–	IC50 [7]: 1000 µM
OC1CNC(CNC2CCCC2)C1O (stereo not drawn) [2-Cyclopentylaminomethyl-pyrrolidine-3,4-diol]	–	–	500 µM	IC50 [1]: 560 µM
OC1CNC(CNCc2ccco2)C1O (stereo not drawn) [2-{[(Furan-2-ylmethyl)-amino]-methyl}-pyrrolidine-3,4-diol]	–	–	140 µM	Ki [8]: 12 µM
OC1CNC(CNCn2ccnc2)C1O (stereo not drawn) [2-{[(Imidazol-1-ylmethyl)-amino]-methyl}-pyrrolidine-3,4-diol]	–	700 µM	420 µM	IC50 [7]: 570 µM
OC1CNC(CNCc2cccs2)C1O (stereo not drawn) [2-{[(Thiophen-2-ylmethyl)-amino]-methyl}-pyrrolidine-3,4-diol]	26 µM	–	–	Ki [9]: 98 µM; IC50 [10]: 350 µM

More lines, main results first:

Ki [4]	IC50 [5]	IC50 [6]	Structure (SMILES)	other results
–	–	370 µM	OC1CNC(CNCc2ccccc2)C1O (stereo not drawn) [2-(Benzylamino-methyl)-pyrrolidine-3,4-diol]	–
170 µM	–	550 µM	CC(NCC1NCC(O)C1O)C(O)(c1ccccc1)c1ccccc1 (stereo not drawn) [2-[(2-Hydroxy-1-methyl-2,2-diphenyl-ethylamino)-methyl]-pyrrolidine-3,4-diol]	IC50 [1]: 440 µM
170 µM	440 µM	–	C[C@@H](NCC1NCC(O)C1O)c1ccccc1 (stereo partly drawn) [2-[((R)-1-Phenyl-ethylamino)-methyl]-pyrrolidine-3,4-diol]	–
–	700 µM	430 µM	OC1CNC(CNCC2CCN(Cc3ccccc3)CC2)C1O (stereo not drawn) [2-{[(1-Benzyl-piperidin-4-ylmethyl)-amino]-methyl}-pyrrolidine-3,4-diol]	–
–	–	430 µM	CC(=O)N(Cc1ccccc1)CC1NCC(O)C1O (stereo not drawn) [N-Benzyl-N-(3,4-dihydroxy-pyrrolidin-2-ylmethyl)-acetamide]	Ki [3]: 220 µM
